Reference: patent publication US9751869B2, “LXR modulators” (BRISTOL-MYERS SQUIBB COMPANY, priority 2013, dated 2017)

Target: T1, LXRβ (Homo sapiens, UniProt P55055)
T1 construct: Co-transfection expression plasmids, comprising full-length LXRα (pCMX-h LXRα or LXRβ (pCMX-hLXRβ)); expressed in transfected cells; host or cells: CV-1 African green monkey kidney cells, transient transfection with pCMX-hLXRβ
T1 sequence (P55055 1-460): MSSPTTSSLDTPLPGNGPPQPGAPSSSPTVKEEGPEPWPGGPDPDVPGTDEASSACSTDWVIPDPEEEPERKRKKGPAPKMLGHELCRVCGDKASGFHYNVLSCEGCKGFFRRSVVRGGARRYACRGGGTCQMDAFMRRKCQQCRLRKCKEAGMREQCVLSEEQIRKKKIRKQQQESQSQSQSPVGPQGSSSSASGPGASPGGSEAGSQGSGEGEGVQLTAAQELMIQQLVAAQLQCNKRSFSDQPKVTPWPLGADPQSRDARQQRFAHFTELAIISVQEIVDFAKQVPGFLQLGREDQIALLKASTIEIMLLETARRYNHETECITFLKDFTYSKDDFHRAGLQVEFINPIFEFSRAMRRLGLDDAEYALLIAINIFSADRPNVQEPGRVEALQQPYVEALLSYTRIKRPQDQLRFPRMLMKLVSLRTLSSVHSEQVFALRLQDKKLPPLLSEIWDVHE
T1 sequence (P19793 1-462 partner): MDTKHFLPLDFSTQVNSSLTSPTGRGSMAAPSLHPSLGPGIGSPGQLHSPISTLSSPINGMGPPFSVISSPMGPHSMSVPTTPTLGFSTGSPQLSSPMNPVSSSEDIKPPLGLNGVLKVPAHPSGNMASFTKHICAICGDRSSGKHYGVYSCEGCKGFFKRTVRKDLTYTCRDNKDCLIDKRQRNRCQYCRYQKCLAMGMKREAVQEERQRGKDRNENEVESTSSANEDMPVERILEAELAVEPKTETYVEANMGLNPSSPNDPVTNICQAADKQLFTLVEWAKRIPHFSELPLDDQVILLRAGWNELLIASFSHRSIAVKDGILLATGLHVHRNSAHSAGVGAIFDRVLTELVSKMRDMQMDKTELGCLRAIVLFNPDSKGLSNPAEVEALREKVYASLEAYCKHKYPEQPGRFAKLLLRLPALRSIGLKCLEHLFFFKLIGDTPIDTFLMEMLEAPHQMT
Test: LXR/LXRE co-transfection assay (luciferase reporter) in CV-1 cells, LXRβ
Type: cell-based
Details: for EC50: CV-1 cells transfected with pCMX-hLXRβ and LXREx1-Tk-Luciferase, 20 hours incubation, read-out: LXRbeta agonism EC50; for Emax: read-out: LXRbeta % EFFICACY
Outline: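 CV-1 cells transiently co-transfected with full-length human LXRβ, LXRE-Tk-luciferase reporter and β-galactosidase control, then exposed to compound (≤0.5% DMSO) for 20 h at 37 °C before luminescence read. EC50 from 10-point, half-log dose curves; efficacy relative to the sulfonamide high control, means of 2–3 experiments.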

[1] = CV-1 cells, relative to maximum response of high control N-(3-((4-fluorophenyl)-(naphthalene-2-sulfonyl)amino)propyl)-2,2-dimethylpropionamide

EC50	Emax [1]	LXRbeta % EFFICACY [1]	SMILES
0.297 µM	45%		Cc1nc(-c2ccc3c(c2)OC(F)(F)O3)c(-c2cc(-c3cc(F)cc(S(C)(=O)=O)c3)ccc2-c2cc(C(F)(F)C(N)=O)nn2C)o1 [Example 45, 2-(5-(3-(4-(2,2-difluorobenzo[d][1,3]dioxol-5-yl)-2-methyloxazol-5-yl)-3′-fluoro-5′-(methylsulfonyl)biphenyl-4-yl)-1-methyl-1H-pyrazol-3-yl)-2,2-difluoroacetamide]
0.776 µM	79%		Cn1nc(C(=O)NCC(F)(F)F)cc1-c1ccc(-c2cccc(S(C)(=O)=O)c2)cc1-n1nncc1-c1ccc(OC(F)(F)F)cc1 [Example 39, 1-methyl-5-[3′-(methylsulfonyl)-3-(5-{4-[(trifluoromethyl)oxy]phenyl}-1H-1,2,3-triazol-1-yl)biphenyl-4-yl]-N-(2,2,2-trifluoroethyl)-1H-pyrazole-3-carboxamide]
0.012 µM	109%		Cc1c(C(C)(F)F)nn(C)c1-c1ccc(-c2cc(F)c(CO)c(S(C)(=O)=O)c2)cc1-n1nncc1-c1ccc(OC(F)(F)F)cc1 [Example 5]
0.006 µM	76%		Cc1nc(-c2ccc3c(c2)OC(F)(F)O3)c(-c2cc(-c3cc(F)c(CO)c(S(C)(=O)=O)c3)ccc2-c2cc([C@H](C)C#N)nn2C)o1 [Example 59, (S)-2-(5-(3-(4-(2,2-difluorobenzo[d][1,3]dioxol-5-yl)-2-methyloxazol-5-yl)-3′-fluoro-4′-(hydroxymethyl)-5′-(methylsulfonyl)-[1,1′-biphenyl]-4-yl)-1-methyl-1H-pyrazol-3-yl)propanenitrile]
0.316 µM	14%		Cc1nc(-c2ccc3c(c2)OC(F)(F)O3)c(-c2cc(-c3cccc(S(C)(=O)=O)c3)ccc2-n2ccc(C(N)=O)n2)o1 [Example 359, 1-(3-(4-(2,2-difluorobenzo[d][1,3]dioxol-5-yl)-2-methyloxazol-5-yl)-3′-(methylsulfonyl)-[1,1′-biphenyl]-4-yl)-1H-pyrazole-3-carboxamide]
0.029 µM	93%		Cc1nc(-c2cc(-c3cccc(S(C)(=O)=O)c3)ccc2-n2nc(C(F)(F)F)cc2Cl)c(-c2ccc3c(c2)OC(F)(F)O3)o1 [Example 412, 4-(4-(5-chloro-3-(trifluoromethyl)-1H-pyrazol-1-yl)-3′-(methylsulfonyl)biphenyl-3-yl)-5-(2,2-difluorobenzo[d][1,3]dioxol-5-yl)-2-methyloxazole]
0.003 µM	92%		Cc1nc(-c2ccc3c(c2)OC(F)(F)O3)c(-c2cc(-c3cc(F)c(CO)c(S(C)(=O)=O)c3)ccc2-n2nc(C(F)(F)F)cc2C)o1 [Example 329, (3′-(4-(2,2-difluorobenzo[d][1,3]dioxol-5-yl)-2-methyloxazol-5-yl)-3-fluoro-4′-(5-methyl-3-(trifluoromethyl)-1H-pyrazol-1-yl)-5-(methylsulfonyl)biphenyl-4-yl)methanol]
2.23 µM	87%		Cn1nc(C(F)(F)CO)cc1-c1ccc(-c2cccc(S(C)(=O)=O)c2)cc1-n1nncc1-c1ccc2c(c1)OC(F)(F)O2 [Example 35, 2-(5-(3-(5-(2,2-difluorobenzo[d][1,3]dioxol-5-yl)-1H-1,2,3-triazol-1-yl)-3′-(methylsulfonyl)-[1,1′-biphenyl]-4-yl)-1-methyl-1H-pyrazol-3-yl)-2,2-difluoroethanol]
0.157 µM		49%	Cc1nc(-c2ccc3c(c2)OC(F)(F)O3)c(-c2cc(-c3cc(F)c(CO)c(S(C)(=O)=O)c3)ccc2-c2cc(C(C)OC(N)=O)nn2C)o1 (centres unmarked) [Example 132, 1-(5-(3-(4-(2,2-difluorobenzo[d][1,3]dioxol-5-yl)-2-methyloxazol-5-yl)-3′-fluoro-4′-(hydroxymethyl)-5′-(methylsulfonyl)-[1,1′-biphenyl]-4-yl)-1-methyl-1H-pyrazol-3-yl)ethyl carbamate]
0.458 µM	37%		Cc1nc(-c2cc(-c3cc(F)c(CO)c(S(C)(=O)=O)c3)ccc2-n2nc(C(F)(F)F)cc2C2CC2)c(-c2ccc(OC(F)(F)F)cc2)o1 [Example 415, (4′-(5-cyclopropyl-3-(trifluoromethyl)-1H-pyrazol-1-yl)-3-fluoro-3′-(2-methyl-5-(4-(trifluoromethoxy)phenyl)oxazol-4-yl)-5-(methylsulfonyl)biphenyl-4-yl)methanol]
0.023 µM	93%		Cc1nc(-c2ccc(OC(F)F)nc2)c(-c2cc(-c3cccc(S(C)(=O)=O)c3)ccc2-n2ccc(C(F)(F)F)n2)o1 [Example 353, 4-(6-(difluoromethoxy)pyridin-3-yl)-2-methyl-5-(3′-(methylsulfonyl)-4-(3-(trifluoromethyl)-1H-pyrazol-1-yl)biphenyl-3-yl)oxazole]
0.03 µM	53%		Cc1nc(-c2ccc(OC(F)F)cc2)c(-c2cc(-c3cccc(S(C)(=O)=O)c3)ccc2-n2ccc(C(F)(F)F)n2)o1 [Example 435, 4-(4-(difluoromethoxy)phenyl)-2-methyl-5-(3′-(methylsulfonyl)-4-(3-(trifluoromethyl)-1H-pyrazol-1-yl)-[1,1′-biphenyl]-3-yl)oxazole]
0.465 µM	29%		Cc1nc(-c2ccc(OC(F)(F)F)cc2)c(-c2cc(-c3cccc(S(C)(=O)=O)c3)ccc2-n2cc(Cl)c(C(F)(F)F)n2)o1 [Example 380, 5-(4-(4-chloro-3-(trifluoromethyl)-1H-pyrazol-1-yl)-3′-(methylsulfonyl)-[1,1′-biphenyl]-3-yl)-2-methyl-4-(4-(trifluoromethoxy)phenyl) oxazole]
0.052 µM	73%		Cc1nc(-c2cc(-c3cc(F)c(CO)c(S(C)(=O)=O)c3)ccc2-n2ccc(C(F)(F)F)n2)c(-c2ccc(OC(F)(F)F)cc2)o1 [Example 413, (3-fluoro-3′-(2-methyl-5-(4-(trifluoromethoxy)phenyl)oxazol-4-yl)-5-(methylsulfonyl)-4′-(3-(trifluoromethyl)-1H-pyrazol-1-yl)biphenyl-4-yl)methanol]
0.027 µM	27%		Cc1nc(-c2ccc3c(c2)OC(F)(F)O3)c(-c2cc(-c3cc(F)c(CO)c(S(C)(=O)=O)c3)ccc2-c2cc(C(C)(C)C(C)(C)O)nn2C)o1 [Example 66, 3-(5-(3-(4-(2,2-difluorobenzo[d][1,3]dioxol-5-yl)-2-methyloxazol-5-yl)-3′-fluoro-4′-(hydroxymethyl)-5′-(methylsulfonyl)biphenyl-4-yl)-1-methyl-1H-pyrazol-3-yl)-2,3-dimethylbutan-2-ol]
0.022 µM	82%		Cn1nc(C(C)(F)F)cc1-c1ccc(-c2cc(F)c(CO)c(S(C)(=O)=O)c2)cc1-n1nncc1-c1ccc(OC(F)(F)F)cc1 [Example 21, {4′-[3-(1,1-difluoroethyl)-1-methyl-1H-pyrazol-5-yl]-3-fluoro-5-(methylsulfonyl)-3′-(5-{4-[(trifluoromethyl)oxy]phenyl}-1H-1,2,3-triazol-1-yl)biphenyl-4-yl}methanol]
0.568 µM	50%		Cn1nc(C(F)(F)C(C)(C)O)cc1-c1ccc(-c2cccc(S(C)(=O)=O)c2)cc1-n1nncc1-c1ccc(Cl)cc1 [Example 31, 1-(5-(3-(5-(4-chlorophenyl)-1H-1,2,3-triazol-1-yl)-3′-(methylsulfonyl)-[1,1′-biphenyl]-4-yl)-1-methyl-1H-pyrazol-3-yl)-1,1-difluoro-2-methylpropan-2-ol]
0.074 µM	66%		Cc1nc(-c2ccc3c(c2)OC(F)(F)O3)c(-c2cc(-c3cc(F)c(CO)c(S(C)(=O)=O)c3)ccc2-c2cc(C(F)(F)CO)nn2C)o1 [Example 105, 2-(5-(3-(4-(2,2-difluorobenzo[d][1,3]dioxol-5-yl)-2-methyloxazol-5-yl)-3′-fluoro-4′-(hydroxymethyl)-5′-(methylsulfonyl)-[1,1′-biphenyl]-4-yl)-1-methyl-1H-pyrazol-3-yl)-2,2-difluoroethanol]
0.035 µM	69%		Cc1nc(-c2ccc(OC(F)(F)F)cc2)c(-c2cc(-c3ccc(CO)c(S(C)(=O)=O)c3)ccc2-n2nc(C(F)(F)F)cc2C)o1 [Example 333, (4′-(5-methyl-3-(trifluoromethyl)-1H-pyrazol-1-yl)-3′-(2-methyl-4-(4-(trifluoromethoxy)phenyl)oxazol-5-yl)-3-(methylsulfonyl)biphenyl-4-yl)methanol]
